A word on the EC50: it is the midpoint of the concentration-response curve. What is called inhibition is the change of the read-out against control, counted positive when it falls.

The test system of assay [1] is Primary human fibroblasts derived from IPF patients (LL29 cells) treated with TGF-β1. The assay can be described thus: Inhibition of the fibrotic process: αSMA staining in TGF-β1 treated fibroblasts. Type of assay: cell-based. The following applies: Fibroblast, 96 h, LL29 fibroblasts treated with TGF-β1, 4 days; for inhibition at 10 µM: read-out: percent inhibition in brackets beside EC50 >10 μM. An excerpt:
Representative compounds were screened using primary human fibroblasts (derived from IPF patients) treated with TGF-β1 to determine their ability to inhibit the fibrotic process.
Primary human fibroblasts derived from IPF patients (LL29 cells) [^1Xiaoqiu Liu, et. al., “Fibrotic Lung Fibroblasts Show Blunted Inhibition by cAMP Due to Deficient cAMP Response Element-Binding Protein Phosphorylation”, Journal of Pharmacology and Experimental Therapeutics (2005), 315(2), 678-687; ^2Watts, K. L., et. al., “RhoA signaling modulates cyclin D1 expression in human lung fibroblasts; implications for idiopathic pulmonary fibrosis”, Respiratory Research (2006), 7(1), 88] were obtained from American Type Culture Collection (ATCC) and expanded in F12 medium supplemented with 15% Fetal Bovine Serum and Penicillin/Streptomycin.
Each compound was dissolved in DMSO as a 10 mM stock and used to prepare compound source plates. Serial dilution (1:2, 11-point dose-response curves from 10 μM to 1.87 nM) and compound transfer was performed using the ECHO 550 (Labcyte, Sunnyvale, Calif.) into 384-well clear bottom assay plates (Greiner Bio-One) with appropriate DMSO backfill for a final DMSO concentration of 0.1%. LL29 cells are plated at 1,500 cells/well in 80 μL/well F12 medium supplemented with 1% Fetal Bovine Serum. One hour after addition of the cells, TGF-β1 (Peprotech; 20 ng/mL) was added to the plates to induce fibrosis (ref. 1 and 2 above). Wells treated with TGF-β1 and containing DMSO were used as controls. Cells were incubated at 37° C. and 5% CO2 for 4 days. Following incubation for 4 days, SYTOX green nucleic acid stain (Life Technologies [Thermo Fisher Scientific]) was added to the wells at a final concentration of 1 μM and incubated at room temperature for 30 min. Cells were then fixed using 4% formaldehyde (Electron Microscopy Sciences), washed 3 times with PBS followed by blocking and permeabilization using 3% Bovine Serum Albumin (BSA; Sigma) and 0.3% Triton X-100 (Sigma) in PBS. Cells were then stained with antibody specific to α-smooth muscle actin (αSMA; Abcam) (ref. 1 and 2 above) in 3% Bovine Serum Albumin (BSA; Sigma) and 0.3% Triton X-100 (Sigma) in PBS, and incubated overnight at 4° C. Cells were then washed 3 times with PBS, followed by incubation with Alexa Flor-647 conjugated secondary antibody (Life Technologies [Thermo Fisher Scientific]) and DAPI at room temperature for 1 hour. Cells were then washed 3 times with PBS and plates were sealed for imaging. αSMA staining was imaged by excitation at 630 nm and emission at 665 nm and quantified using the Compartmental Analysis program on the CellInsight CX5 (Thermo Scientific). Dead or apoptotic cells were excluded from analysis based on positive SYTOX green staining. % of total cells positive for αSMA were counted in each well and normalized to the average of 11 wells treated with TGF-β1 on the same plate using Dotmatics' Studies Software. The normalized averages (fold change over untreated) of 3 replicate wells for each compound concentration were used to create dose-responses curves and EC50 values were calculated using non-linear regression curve fit in the Dotmatics' Studies Software. For EC50 of >10 μM, the percent inhibition at 10 μM is provided.

The test system of assay [2] is IL-6 in human monocyte cell line (THP-1 cells). The assay can be described thus: IL-6 inhibition in LPS-stimulated THP-1 cells (HTRF). Type of assay: cell-based. The conditions noted are these: IL-6 in LPS-stimulated THP-1 cells; for EC50: HTRF; for inhibition at 10 µM: read-out: percent inhibition in brackets beside EC50 >10 μM. The method, then: Human monocyte cell line (THP-1 cells; Catalog # TIB-202, ATCC, Manassas, Va.) were cultured in Roswell Park Memorial Institute (RPMI) 1640 Medium (Catalog #21870-100, Buffalo, N.Y.) with 1% L-glutamine, 1% HEPES, 1% Sodium Pyruvate, 2% Sodium Bicarbonate supplemented with 100 units/mL penicillin, 50 μg/mL streptomycin, 2-mercaptoethanol (0.05 mM) [basal medium] and 10% fetal bovine serum (Catalog #16140089, Life Technologies, Carlsbad, Calif.) at 37° C. and 5% CO2.
THP-1 cells were cultured in basal media with 1% FBS for 24 hours before the start of the assay. Each compound was dissolved in DMSO as a 10 mM stock and used to prepare compound source plates. Serial dilution (1:3, 10-point dose-response curves starting from 10 μM) and compound transfer was performed using the ECHO 550 (Labcyte, Sunnyvale, Calif.) into 384-well white low volume assay plates (Greiner Bio-One) with appropriate DMSO backfill for a final DMSO concentration of 0.1%. THP-1 cells were plated at 5000 cells/well in the 384-well plates and incubated at 37° C. for 2 h. 500 ng/mL of LPS was added after 2 hours and cells were incubated for another 22 hours at 37° C. Plates were spun in a centrifuge for 1 minute at […] and a mixture of anti-IL6 XL665, and anti-IL6 Cryptate diluted in reconstitution buffer (Cisbio Inc.) was added to each well. Following incubation for 3 hrs at room temperature, Homogeneous Time-Resolved Fluorescence (HTRF) was measured using the Envision (Perkin Elmer) at 665 nm and […]. The ratio of fluorescence at 665 nm to 620 nm was used as a readout for IL6 quantification. All samples were processed in duplicate. Readings were normalized to DMSO treated cells and normalized activities were utilized for EC50 calculations using the dose-response log (inhibitor) vs. response-variable slope (four parameters) nonlinear regression feature available in GraphPad Prism 5.0 (or Dotmatics). For EC50 of >10 μM, the percent inhibition at 10 μM is provided.

Some results are limits rather than exact numbers.

With `CCC(=O)Nc1cncc(-c2ccc3[nH]nc(-c4nc5c(-c6cccc(F)c6)nccc5[nH]4)c3n2)c1` [Compound 1, N-(5-(3-(4-(3-Fluorophenyl)-1H-imidazo[4,5-c]pyridin-2-yl)-1H-pyrazolo [4,3-b]pyridin-5-yl)pyridin-3-yl)propionamide], the EC50 in assay [1] and in assay [2] was over 10 µM each time. Also, the inhibition at 10 µM in assay [1] and in assay [2] was 0% throughout.
In the case of `Fc1cccc(-c2nccc3[nH]c(-c4n[nH]c5ccc(-c6cncc(CN7CCC(F)(F)C7)c6)nc45)nc23)c1` [Compound 26, 5-(5-((3,3-Difluoropyrrolidin-1-yl)methyl)pyridin-3-yl)-3-(4-(3-fluorophenyl)-1H-imidazo[4,5-c]pyridin-2-yl)-1H-pyrazolo[4,3-b]pyridine], the EC50 in assay [1] stood at 3.21 µM. For the same compound, in assay [2], the EC50 was over 10 µM and the inhibition at 10 µM stood at 0%.
The matching figures for `CC(C)(C)C(=O)Nc1cncc(-c2ccc3[nH]nc(-c4nc5c(-c6ccc(F)cc6)nccc5[nH]4)c3n2)c1` [Compound 36, N-(5-(3-(4-(4-Fluorophenyl)-1H-imidazo[4,5-c]pyridin-2-yl)-1H-pyrazolo [4,3-b]pyridin-5-yl)pyridin-3-yl)pivalamide]: 1.28 µM, over 10 µM and 0%.
In the same order, the values of `Fc1ccc(-c2nccc3[nH]c(-c4n[nH]c5ccc(-c6cncc(CN7CCCC7)c6)nc45)nc23)cc1` [Compound 42, 3-(4-(4-Fluorophenyl)-1H-imidazo[4,5-c]pyridin-2-yl)-5-(5-(pyrrolidin-1-ylmethyl)pyridin-3-yl)-1H-pyrazolo[4,3-b]pyridine] are 2.87 µM, over 10 µM and 23.3%.
For the compound `O=C(Nc1cncc(-c2ccc3[nH]nc(-c4nc5c(-c6ccc(F)cc6)nccc5[nH]4)c3n2)c1)C1CCC1` [Compound 49, N-(5-(3-(4-(4-Fluorophenyl)-1H-imidazo[4,5-c]pyridin-2-yl)-1H-pyrazolo [4,3-b]pyridin-5-yl)pyridin-3-yl)cyclobutanecarboxamide], in assay [1], the EC50 is over 10 µM and the inhibition at 10 µM came to 7.5%. Moreover, in assay [2], the EC50 is over 10 µM and the inhibition at 10 µM was 0%.
In assay [1], `Fc1ccc(-c2nccc3[nH]c(-c4n[nH]c5ccc(-c6cncnc6)nc45)nc23)cc1` [Compound 55, 3-(4-(4-Fluorophenyl)-1H-imidazo[4,5-c]pyridin-2-yl)-5-(pyrimidin-5-yl)-1H-pyrazolo[4,3-b]pyridine] returned an EC50 of 2.18 µM. Further, in assay [2], the EC50 is over 10 µM and the inhibition at 10 µM is 27.3%.
With `Nc1cncc(-c2ccc3[nH]nc(-c4nc5c(-c6ccccc6F)nccc5[nH]4)c3n2)c1` [Compound 59, 5-(3-(4-(2-Fluorophenyl)-1H-imidazo[4,5-c]pyridin-2-yl)-1H-pyrazolo[4,3-b]pyridin-5-yl)pyridin-3-amine], in assay [1], the EC50 was over 10 µM and the inhibition at 10 µM worked out at 0%. In addition, in assay [2], the EC50 was over 10 µM and the inhibition at 10 µM is 30.6%.
In the case of `CC(C)C(=O)Nc1cncc(-c2ccc3[nH]nc(-c4nc5c(-c6ccccc6F)nccc5[nH]4)c3n2)c1` [Compound 65, N-(5-(3-(4-(2-fluorophenyl)-1H-imidazo[4,5-c]pyridin-2-yl)-1H-pyrazolo [4,3-b]pyridin-5-yl)pyridin-3-yl)isobutyramide], in assay [1], the concentration for a half-maximal effect (EC50) was over 10 µM and the inhibition at 10 µM came to 4%. Also, in assay [2], the EC50 is over 10 µM and the inhibition at 10 µM was determined as 40.4%.
In the case of `CC(C)(C)CC(=O)Nc1cncc(-c2ccc3[nH]nc(-c4nc5c(-c6ccccc6F)nccc5[nH]4)c3n2)c1` [Compound 72, N-(5-(3-(4-(2-fluorophenyl)-1H-imidazo[4,5-c]pyridin-2-yl)-1H-pyrazolo [4,3-b]pyridin-5-yl)pyridin-3-yl)-3,3-dimethylbutanamide], the EC50 in assay [1] and in assay [2] was over 10 µM each time. Moreover, the inhibition at 10 µM came out at 0% in assay [1] and 26.1% in assay [2].
With `O=C(Nc1cncc(-c2ccc3[nH]nc(-c4nc5c(-c6ccccc6F)nccc5[nH]4)c3n2)c1)C1CCCC1` [Compound 78, N-(5-(3-(4-(2-Fluorophenyl)-1H-imidazo[4,5-c]pyridin-2-yl)-1H-pyrazolo [4,3-b]pyridin-5-yl)pyridin-3-yl)cyclopentanecarboxamide], in assay [1], the EC50 was over 10 µM and the inhibition at 10 µM stood at 0%. Moreover, in assay [2], the EC50 was over 10 µM and the inhibition at 10 µM amounted to 29.7%.
Consider `Fc1ccccc1-c1nccc2[nH]c(-c3n[nH]c4ccc(-c5cncc(CNCC6CCCC6)c5)nc34)nc12` [Compound 81, 1-Cyclopentyl-N-((5-(3-(4-(2-fluorophenyl)-1H-imidazo[4,5-c]pyridin-2-yl)-1H-pyrazolo[4,3-b]pyridin-5-yl)pyridin-3-yl)methyl)methanamine], for which the EC50 in assay [1] was 1.28 µM. In assay [2], the EC50 is over 10 µM and the inhibition at 10 µM came to 54.6%.
As to `Fc1ccccc1-c1nccc2[nH]c(-c3n[nH]c4ccc(-c5ccccn5)nc34)nc12` [Compound 84, 3-(4-(2-Fluorophenyl)-1H-imidazo[4,5-c]pyridin-2-yl)-5-(pyridin-2-yl)-1H-pyrazolo[4,3-b]pyridine], the EC50 in assay [1] and in assay [2] was over 10 µM throughout. Further, the inhibition at 10 µM in assay [1] was determined as 18.1%; in assay [2] it was 27.2%.
Regarding `c1cncc(-c2ccc3[nH]nc(-c4nc5c(-c6cccnc6)nccc5[nH]4)c3n2)c1` [Compound 88, 5-(Pyridin-3-yl)-3-(4-(pyridin-3-yl)-1H-imidazo[4,5-c]pyridin-2-yl)-1H-pyrazolo[4,3-b]pyridine], in assay [1], the EC50 is over 10 µM and the inhibition at 10 µM is 22.2%. Further, in assay [2], the EC50 is over 10 µM and the inhibition at 10 µM was found to be 20.4%.
Regarding `CC(C)C(=O)Nc1cncc(-c2ccc3[nH]nc(-c4nc5c(-c6cccnc6)nccc5[nH]4)c3n2)c1` [Compound 93, N-(5-(3-(4-(Pyridin-3-yl)-1H-imidazo[4,5-c]pyridin-2-yl)-1H-pyrazolo[4,3-b]pyridin-5-yl)pyridin-3-yl)isobutyramide], the results for the EC50 in assay [1] and in assay [2] were 2.01 µM and over 10 µM, respectively. Moreover, the inhibition at 10 µM in assay [2] came to 25.1%.

Source of the values: US10195185B2, “3-(1H-imidazo[4,5-C]pyridin-2-yl)-1H-pyrazolo[4,3-B]pyridines and therapeutic uses thereof” (Samumed, LLC, priority 2015, dated 2019).
